Our source for the IC50 values is US20240083861A1, “HSD17B13 INHIBITORS AND USES THEREOF” (FL2022-001, Inc., priority 2020, published 2024).

This assay concerns the target T1, Recombinant human HSD17B13 enzyme (Homo sapiens, UniProt Q7Z5P4).
T1 sequence (Q7Z5P4 20-300): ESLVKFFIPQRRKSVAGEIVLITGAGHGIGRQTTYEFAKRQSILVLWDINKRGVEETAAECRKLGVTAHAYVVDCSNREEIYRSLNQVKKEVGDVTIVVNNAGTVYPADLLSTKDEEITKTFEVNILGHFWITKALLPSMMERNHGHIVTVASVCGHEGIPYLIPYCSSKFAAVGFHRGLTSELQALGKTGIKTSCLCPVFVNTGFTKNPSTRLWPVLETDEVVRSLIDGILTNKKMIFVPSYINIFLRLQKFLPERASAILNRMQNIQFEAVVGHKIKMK
Put plainly: HSD17b13 NAD(P)H-Glo biochemical assay. To be noted: 50 uM estradiol, 1 mM NAD+, NAD(P)H-Glo luminescence; read-out: HSD17β13 IC50. In a few lines:
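Recombinant human HSD17B13 in 20 mM Tris pH7.4 with 0.002% Tween-20 and 0.02% BSA was preincubated with inhibitor for 20 minutes at RT. The reaction ran 3 hours at 37° C with 50 uM estradiol and 1 mM NAD+ (final). NADH formed was detected by NAD(P)H-Glo luminescence after 1 hour at RT.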
For the molecule `Cn1nc(-c2cc(C(F)(F)F)c(F)c(O)c2F)c2cnc(N3CCOCC3CC(F)(F)F)nc21` (centres unmarked) [Compound 18.107, 2,6-Difluoro-3-(1-methyl-6-(3-(2,2,2-trifluoroethyl)morpholino)-1H-pyrazolo[3,4-d]pyrimidin-3-y1)-5-(trifluoromethyl)phenol], the IC50 is less than 100 nM. In the case of `Cn1nc(-c2cc(C(F)(F)F)c(F)c(O)c2F)c2cnc(N3CCC(C)(C)CC3)nc21` [Compound 18.108, 3-(6-(4,4-Dimethylpiperidin-1-yl)-1-methyl-1H-pyrazolo[3,4-d]pyrimidin-3-yl)-2,6-difluoro-5-(trifluoromethyl)phenol], the IC50 was less than 100 nM. Turning to `Cn1nc(-c2cc(C(F)(F)F)c(F)c(O)c2F)c2cnc(N3CCN(S(C)(=O)=O)[C@@H](c4ccccc4)C3)nc21` [Compound 18.109, (S)-2,6-Difluoro-3-(1-methyl-6-(4-(methylsulfony1)-3-phenylpiperazin-1-y1)-1H-pyrazolo[3,4-d]pyrimidin-3-y1)-5-(trifluoromethyl)phenol], the IC50 is less than 100 nM. For `Cn1nc(-c2cc(C(F)(F)F)c(F)c(O)c2F)c2cnc(N3CC4CC3CN4S(C)(=O)=O)nc21` (centres unmarked) [Compound 18.110, 2,6-Difluoro-3-(1-methyl-6-(5-(methylsulfony1)-2,5-diazabicyclo[2.2.1]heptan-2-y1)-1H-pyrazolo[3,4-d]pyrimidin-3-yl)-5-(trifluoromethyl)phenol], the IC50 is less than 100 nM. As for `Cn1nc(-c2cc(C(F)(F)F)c(F)c(O)c2F)c2cnc(N3CC4CCC(C3)N4S(C)(=O)=O)nc21` [Compound 18.111, 2,6-Difluoro-3-(1-methyl-6-(8-(methylsulfony1)-3,8-diazabicyclo[3.2.1]octan-3-yl)-1H-pyrazolo[3,4-d]pyrimidin-3-y1)-5-(trifluoromethyl)phenol], the IC50 is less than 100 nM. Then `Cn1nc(-c2cc(C(F)(F)F)c(F)c(O)c2F)c2cnc(N3CCN(S(C)(=O)=O)C4(COC4)C3)nc21` [Compound 18.112, 2,6-Difluoro-3-(1-methyl-6-(5-(methylsulfonyl)-2-oxa-5,8-diazaspiro[3.5]nonan-8-yl)-1H-pyrazolo[3,4-d]pyrimidin-3-y1)-5-(trifluoromethyl)phenol], with less than 100 nM; and `Cn1nc(-c2cc(C(F)(F)F)c(F)c(O)c2F)c2cnc(N3CCOC(C4CCCCC4)C3)nc21` (centres unmarked) [Compound 18.113, 3-(6-(2-Cyclohexylmorpholino)-1-methyl-1H-pyrazolo[3,4-d]pyrimidin-3-yl)-2,6-difluoro-5-(trifluoromethyl)phenol], with less than 100 nM. Then `Cn1nc(-c2cc(C(F)(F)F)c(F)c(O)c2F)c2cnc(N3CCN(C(=O)c4ccccc4)CC3)nc21` [Compound 18.114, (4-(3-(2,4-Difluoro-3-hydroxy-5-(trifluoromethyl)phenyl)-1-methyl-1H-pyrazolo[3,4-d]pyrimidin-6-y1)piperazin-1-yl)(phenyl)methanone], with less than 100 nM; and `Cn1nc(-c2cc(C(F)(F)F)c(F)c(O)c2F)c2cnc(N3CCN(C(=O)C4CCCCC4)CC3)nc21` [Compound 18.115, Cyclohexyl(4-(3-(2,4-difluoro-3-hydroxy-5-(trifluoromethyl)phenyl)-1-methyl-1H-pyrazolo[3,4-d]pyrimidin-6-yl)piperazin-1-yl)methanone], with less than 100 nM. Take `Cn1nc(-c2cc(C(F)(F)F)c(F)c(O)c2F)c2cnc(N3CCN(C(=O)Nc4ccccc4)CC3)nc21` [Compound 18.116, 4-(3-(2,4-Difluoro-3-hydroxy-5-(trifluoromethyl)phenyl)-1-methyl-1H-pyrazolo[3,4-d]pyrimidin-6-yl)-N-phenylpiperazine-1-carboxamide]: the IC50 was less than 100 nM.

For `Cn1nc(-c2cc(C(F)(F)F)c(F)c(O)c2F)c2cnc(N(Cc3ccccc3)C3CC3)nc21` [Compound 18.117, 3-(6-(Benzyl(cyclopropyl)amino)-1-methyl-1H-pyrazolo[3,4-d]pyrimidin-3-y1)-2,6-difluoro-5-(trifluoromethyl)phenol], the IC50 was less than 100 nM. Then `Cn1nc(-c2cc(C(F)(F)F)c(F)c(O)c2F)c2cnc(N3CCN(S(C)(=O)=O)C(C#N)C3)nc21` (centres unmarked) [Compound 18.118, 4-(3-(2,4-Difluoro-3-hydroxy-5-(trifluoromethyl)phenyl)-1-methyl-1H-pyrazolo[3,4-d]pyrimidin-6-yl)-1-(methylsulfonyl)piperazine-2-carbonitrile], with less than 100 nM; and `Cn1nc(-c2cc(C(F)(F)F)c(F)c(O)c2F)c2cnc(N3CCOC(C)(c4ccccc4)C3)nc21` (centres unmarked) [Compound 18.119, 2,6-Difluoro-3-(1-methyl-6-(2-methyl-2-phenylmorpholino)-1H-pyrazolo[3,4-d]pyrimidin-3-y1)-5-(trifluoromethyl)phenol], with less than 100 nM. The same measure for `C[C@@H]1CN(C(=O)c2ccccc2)CCN1c1ncc2c(-c3cc(C(F)(F)F)c(F)c(O)c3F)nn(C)c2n1` [Compound 18.120, (R)-(4-(3-(2,4-Difluoro-3-hydroxy-5-(trifluoromethyl)phenyl)-1-methyl-1H-pyrazolo[3,4-d]pyrimidin-6-yl)-3-methylpiperazin-1-y1)(phenyl)methanone]: less than 100 nM; for `Cn1nc(-c2cc(C(F)(F)F)c(F)c(O)c2F)c2cnc(N3CCN(C(=O)c4ccccn4)CC3)nc21` [Compound 18.121, (4-(3-(2,4-Difluoro-3-hydroxy-5-(trifluoromethyl)phenyl)-1-methyl-1H-pyrazolo[3,4-d]pyrimidin-6-yl)piperazin-1-yl)(pyridin-2-yl)methanone]: 100 to 1000 nM; for `Cn1nc(-c2cc(C(F)(F)F)c(F)c(O)c2F)c2cnc(N3CCN(C(=O)c4ccncc4)CC3)nc21` [Compound 18.122, (4-(3-(2,4-Difluoro-3-hydroxy-5-(trifluoromethyl)phenyl)-1-methyl-1H-pyrazolo[3,4-d]pyrimidin-6-y1)piperazin-1-yl)(pyridin-4-yl)methanone]: 100 to 1000 nM. Then `Cn1nc(-c2cc(C(F)(F)F)c(F)c(O)c2F)c2cnc(N3CCN(C(=O)C4CC4)CC3)nc21` [Compound 18.123, Cyclopropyl(4-(3-(2,4-difluoro-3-hydroxy-5-(trifluoromethyl)phenyl)-1-methyl-1H-pyrazolo[3,4-d]pyrimidin-6-y1)piperazin-1-yl)methanone], with less than 100 nM. Consider `Cn1nc(-c2cc(C(F)(F)F)c(F)c(O)c2F)c2cnc(N(Cc3ccccc3)C3CCC3)nc21` [Compound 18.124, 3-(6-(Benzyl(cyclobutyl)amino)-1-methyl-1H-pyrazolo[3,4-d]pyrimidin-3-y1)-2,6-difluoro-5-(trifluoromethyl)phenol], for which the half-inhibitory concentration (IC50) is less than 100 nM. Then `Cn1nc(-c2cc(C(F)(F)F)c(F)c(O)c2F)c2cnc(N3CCN(C(=O)NC4CCCCC4)CC3)nc21` [Compound 18.125, N-Cyclohexyl-4-(3-(2,4-difluoro-3-hydroxy-5-(trifluoromethyl)phenyl)-1-methyl-1H-pyrazolo[3,4-d]pyrimidin-6-y1)piperazine-1-carboxamide], with less than 100 nM; and `Cn1nc(-c2cc(C(F)(F)F)c(F)c(O)c2F)c2cnc(N3CCN(C(=O)CN4CCOCC4)CC3)nc21` [Compound 18.126, 1-(4-(3-(2,4-Difluoro-3-hydroxy-5-(trifluoromethyl)phenyl)-1-methyl-1H-pyrazolo[3,4-d]pyrimidin-6-y1)piperazin-1-yl)-2-morpholinoethan-1-one], with 100 to 1000 nM. `Cn1nc(-c2cc(C(F)(F)F)c(F)c(O)c2F)c2cnc(N3CCN(C(=O)C4CCOCC4)CC3)nc21` [Compound 18.127, (4-(3-(2,4-Difluoro-3-hydroxy-5-(trifluoromethyl)phenyl)-1-methyl-1H-pyrazolo[3,4-d]pyrimidin-6-yl)piperazin-1-yl)(tetrahydro-2H-pyran-4-yl)methanone]: the IC50 lay in the range of 100 to 1000 nM. Turning to `Cn1nc(-c2cc(C(F)(F)F)c(F)c(O)c2F)c2cnc(N3CCN(C(=O)c4cccnc4)CC3)nc21` [Compound 18.128, (4-(3-(2,4-Difluoro-3-hydroxy-5-(trifluoromethyl)phenyl)-1-methyl-1H-pyrazolo[3,4-d]pyrimidin-6-yl)piperazin-1-yl)(pyridin-3-yl)methanone], the IC50 was in the range of 100 to 1000 nM. Take `CC(=O)N1CCN(c2ncc3c(-c4cc(C(F)(F)F)c(F)c(O)c4F)nn(C)c3n2)C2(CC2)C1` [Compound 18.129, 1-(4-(3-(2,4-Difluoro-3-hydroxy-5-(trifluoromethyl)phenyl)-1-methyl-1H-pyrazolo[3,4-d]pyrimidin-6-yl)-4,7-diazaspiro[2.5]octan-7-yl)ethan-1-one]: the IC50 is less than 100 nM.

On to `Cn1nc(-c2cc(C(F)(F)F)c(F)c(O)c2F)c2cnc(N3CCOCC3C3CCCCC3)nc21` (centres unmarked) [Compound 18.130, 3-(6-(3-Cyclohexylmorpholino)-1-methyl-1H-pyrazolo[3,4-d]pyrimidin-3-y1)-2,6-difluoro-5-(trifluoromethyl)phenol], for which the IC50 was less than 100 nM. On to `Cn1nc(-c2cc(C(F)(F)F)c(F)c(O)c2F)c2cnc(N3CCO[C@@H](CO)C3)nc21` [Compound 18.131, (R)-2,6-Difluoro-3-(6-(2-(hydroxymethyl)morpholino)-1-methyl-1H-pyrazolo[3,4-d]pyrimidin-3-y1)-5-(trifluoromethyl)phenol], for which the IC50 was in the range of 100 to 1000 nM. Then `Cn1nc(-c2cc(C(F)(F)F)c(F)c(O)c2F)c2cnc(N3CCOCC3)nc21` [Compound 18.132, 2,6-Difluoro-3-(1-methyl-6-morpholino-1H-pyrazolo[3,4-d]pyrimidin-3-y1)-5-(trifluoromethyl)phenol], with less than 100 nM.
